# Laboratory results published in patent US10351565B2, “Therapeutic compounds for pain and synthesis thereof” (priority 2015, dated 2019).
# Where “and” joins values, the source holds several entries; their conditions need not be identical. Identical values can stand only once.
# Experiments:
# [1] = test system: neuropathic pain in mice; experiment: Taxol mouse model of neuropathic pain, repeated daily administration; format: in vivo
# Description: (§1) Table 7 summarizes the activity of Formula 1 in mice models of neuropathic pain following repeated daily administration using different routes of administration.
# [2] = test system: neuropathic pain in mice; experiment: CCI mouse model of neuropathic pain, repeated daily administration; format: in vivo; settings: for Dose of maximum activity: doses tested 150 mg/kg
# Description: as §1
# [3] = PO, 30 mg/kg, repeated daily administration
# [4] = SC, doses tested 1, 3, 10 mg/kg, repeated daily administration
# [5] = SC, 150 mg/kg, repeated daily administration
Structure (SMILES),"Duration of activity at maximum effect [1, 3] [H]","Level of activity (% of maximum effect- baseline) [1, 3] [%]","Peak of activity (T) [1, 3]","Dose of maximum activity ([1]; PO, doses tested 30 mg/kg) [mg/kg]","Dose of maximum activity ([1]; SC, doses tested 1, 3, 10 mg/kg) [mg/kg]","Duration of activity at maximum effect [1, 4] [h]","Level of activity (% of maximum effect- baseline) [1, 4] [%]",Dose of maximum activity ([2]; IP) [mg/kg],"Duration of activity at maximum effect [2, 5]","Level of activity (% of maximum effect- baseline) [2, 5]","Peak of activity (T) [2, 5]",Dose of maximum activity ([2]; SC) [mg/kg],"Dose of maximum activity ([1]; PO, doses tested 150 mg/kg) [mg/kg]","Dose of maximum activity ([1]; SC, doses tested 150 mg/kg) [mg/kg]"
"COc1ccc2cc(CN3[C@@H]4C[C@@H]5C[C@H]3[C@H](OC(=O)C(C)(C)C)C4N(C(=O)CC(F)(F)F)C5)ccc2c1 (stereo partly drawn) [Formula 1, (2S,3S,6R,7aR)-1-((6-methoxynaphthalen-2-yl)methyl)-4-(3,3,3-trifluoropropanoyl)octahydro-1H-2,6-methanopyrrolo[3,2-b]pyridin-3-yl pivalate]",24,100,2-24 H,<30,1,24,100,,,,,,,
NCC1(CC(=O)O)CCCCC1 [Gabapentin],,,,,,,,150,4-6 H,>100% and 64%,2-3 H,150,150,150
